Results published in the supplement of paper PMC10307832.

Tests used:
Test in all cases: relative viability (nuclei count vs DMSO), 5 days (fraction); higher = more cells survive
AZ628 + Crizotinib = compound: CC1=C(C=C(C=C1)NC(=O)C2=CC(=CC=C2)C(C)(C)C#N)NC3=CC4=C(C=C3)N=CN(C4=O)C [AZ628] + C[C@@H](Oc1cc(-c2cnn(C3CCNCC3)c2)cnc1N)c1c(Cl)ccc(F)c1Cl [Crizotinib] (partner 1 µM)
Method in brief: (§1)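 Dosing by pin tool came one day after lung cancer cell lines were seeded in 1536-well plates, using either one drug or a fixed anchor-drug dose plus five library-drug doses (not always all listed) in √10 steps. After 5 days, nuclei were counted on 4× images. Relative viability is treated-well nuclei count divided by vehicle-well nuclei count, and values are medians of duplicate plates.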

[1] = compound: C[As](C)SC[C@H](NC(=O)CC[C@H](N)C(=O)O)C(=O)NCC(=O)O [Darinaparsin] + O=C(CCCCCCC(=O)Nc1ccccc1)NO [Vorinostat] (partner 1 µM)
Method in brief: as §1

AZ628 + Vorinostat = compound: CC1=C(C=C(C=C1)NC(=O)C2=CC(=CC=C2)C(C)(C)C#N)NC3=CC4=C(C=C3)N=CN(C4=O)C [AZ628] + O=C(CCCCCCC(=O)Nc1ccccc1)NO [Vorinostat] (partner 1 µM)
Method in brief: as §1

AZ628 + Decitabine = compound: CC1=C(C=C(C=C1)NC(=O)C2=CC(=CC=C2)C(C)(C)C#N)NC3=CC4=C(C=C3)N=CN(C4=O)C [AZ628] + Nc1ncn([C@H]2C[C@H](O)[C@@H](CO)O2)c(=O)n1 [Decitabine] (partner 2 µM)
Method in brief: as §1

Cell Line | relative viability (AZ628 + Crizotinib; first compound 0.08 µM) | relative viability (AZ628 + Crizotinib; first compound 0.253 µM) | relative viability (AZ628 + Crizotinib; first compound 0.8 µM) | relative viability (AZ628 + Crizotinib; first compound 2.53 µM) | relative viability (AZ628 + Crizotinib; first compound 8 µM) | relative viability ([1]; first compound 0.08 µM) | relative viability ([1]; first compound 0.8 µM) | relative viability ([1]; first compound 2.53 µM) | relative viability ([1]; first compound 8 µM) | relative viability (AZ628 + Vorinostat; first compound 0.08 µM) | relative viability (AZ628 + Vorinostat; first compound 0.253 µM) | relative viability (AZ628 + Vorinostat; first compound 0.8 µM) | relative viability (AZ628 + Vorinostat; first compound 2.53 µM) | relative viability (AZ628 + Vorinostat; first compound 8 µM) | relative viability (AZ628 + Decitabine; first compound 0.08 µM) | relative viability (AZ628 + Decitabine; first compound 0.253 µM) | relative viability (AZ628 + Decitabine; first compound 0.8 µM) | relative viability (AZ628 + Decitabine; first compound 2.53 µM) | relative viability (AZ628 + Decitabine; first compound 8 µM)
UMC-11 | 0.578 | 0.572 | 0.684 | 0.542 | 0.781 | 0.339 | 0.314 | 0.384 | 0.308 | 0.442 | 0.336 | 0.361 | 0.328 | 0.36 | 0.704 | 0.65 | 0.551 | 0.556 | 0.758
LCLC-103H | 1.13 | 1.08 | 1.11 | 1.09 | 1.01 | 0.796 | 0.713 | 0.732 | 0.885 | 0.727 | 0.804 | 0.776 | 0.712 | 0.728 | 0.71 | 0.728 | 0.726 | 0.641 | 0.601
LU99A | 0.601 | 0.505 | 0.586 | 0.566 | 0.286 | 0.477 | 0.47 | 0.524 | 0.455 | 0.511 | 0.473 | 0.496 | 0.52 | 0.33 | 0.825 | 0.669 | 0.806 | 0.447 | 0.386
LXF-289 | 0.791 | 0.749 | 0.768 | 0.76 | 0.497 | 0.775 | 0.788 | 0.828 | 0.779 | 0.817 | 0.755 | 0.701 | 0.71 | 0.473 | 0.403 | 0.378 | 0.394 | 0.371 | 0.372
EPLC-272H | 0.904 | 0.957 | 0.848 | 0.851 | 0.813 | 0.324 | 0.42 | 0.422 | 0.4 | 0.557 | 0.518 | 0.4 | 0.332 | 0.274 | 0.297 | 0.328 | 0.371 | 0.319 | 0.225
LOU-NH91 | 0.721 | 0.755 | 0.755 | 0.731 | 0.606 | 0.937 | 0.885 | 0.86 | 0.969 | 1 | 0.911 | 0.904 | 0.794 | 0.675 | 0.814 | 0.811 | 0.801 | 0.816 | 0.749
NCI-H1793 |  |  |  |  |  | 0.653 | 0.731 |  | 0.911 | 0.969 | 0.632 | 0.835 | 0.602 | 0.484 | 0.616 | 0.442 | 0.458 | 0.441 | 0.184
NCI-H1792 | 1.08 | 0.916 | 0.771 | 0.881 | 0.633 |  |  |  |  |  |  |  |  |  | 0.605 | 0.532 | 0.514 | 0.476 | 0.121
NCI-H2342 |  |  |  |  |  | 0.876 | 0.721 | 0.734 | 0.828 | 0.928 | 0.692 | 0.81 | 0.753 | 0.825 | 0.837 | 0.651 | 0.779 | 0.726 | 0.747
CAL-12T | 0.871 |  | 0.565 | 0.622 | 0.361 | 1.09 | 0.707 | 0.785 | 0.931 | 0.802 | 0.634 | 0.643 | 0.522 | 0.417 |  |  |  |  | 
NCI-H1648 |  |  |  |  |  |  | 0.301 |  | 0.56 | 0.544 | 0.372 | 0.333 | 0.375 | 0.323 | 0.72 | 0.563 | 0.453 | 0.453 | 0.489
NCI-H1703 | 0.538 | 0.672 | 0.405 | 0.204 | 0.192 |  |  |  |  |  |  |  |  |  |  |  |  |  | 
Calu-6 | 0.753 | 0.678 | 0.605 | 0.577 | 0.153 |  |  |  |  |  |  |  |  |  |  |  |  |  | 
IA-LM | 0.971 | 0.749 | 0.678 | 0.829 | 0.18 | 0.947 | 1.07 | 1.2 | 0.89 | 1.01 | 0.962 | 0.657 | 0.722 | 0.21 |  |  |  |  | 
NCI-H1395 |  |  |  |  |  | 0.813 | 0.722 | 0.582 | 0.589 | 0.936 | 0.61 | 0.665 | 0.62 | 0.607 | 0.678 | 0.698 | 0.667 | 0.647 | 0.788
A549 | 0.702 | 0.728 | 0.697 | 0.712 | 0.382 |  |  |  |  |  |  |  |  |  | 0.262 | 0.24 | 0.268 | 0.287 | 0.206
EBC-1 | 0.201 | 0.212 | 0.169 | 0.197 | 0.168 |  |  |  |  |  |  |  |  |  |  |  |  |  | 
NCI-H522 |  |  |  |  |  | 0.85 | 0.909 | 0.798 | 0.905 | 0.924 | 0.891 | 0.95 | 0.82 | 0.695 | 0.62 | 0.66 | 0.686 | 0.78 | 0.522
NCI-H1299 | 1.1 | 1.06 | 1.16 | 1.16 | 0.651 |  |  |  |  |  |  |  |  |  |  |  |  |  | 
NCI-H1563 | 0.892 | 0.825 | 0.872 | 0.833 | 0.938 |  |  |  |  |  |  |  |  |  |  |  |  |  | 
SW 900 |  |  |  |  |  | 0.457 |  | 0.635 | 0.596 | 0.622 | 0.463 | 0.573 | 0.426 | 0.534 | 0.442 | 0.445 | 0.509 | 0.417 | 0.441
NCI-H2228 | 0.372 | 0.486 | 0.5 | 0.41 | 0.531 | 0.771 | 0.839 | 0.388 | 0.672 | 0.697 | 0.684 | 0.644 | 0.507 | 0.432 |  |  |  |  | 
